# Assays:
# [1] = tested on: K. pneumoniae ATCC13883; experiment: MIC by broth microdilution, K. pneumoniae; type: cell-based, Klebsiella pneumoniae; settings: MHB; for MIC: Klebsiella pneumoniae, ATCC13883, read-out: MIC (μg/mL) K. pneumoniae ATCC13883
# Protocol: (§1) MIC values were evaluated following CLSI guidelines with some modifications, as referred to in previous work. Twofold dilutions 25.6–0.05 mg/mL of the tested compounds were performed in DMSO in separate 96-well microtiter U-plates (Greiner, Milan, Italy). In a different 96-well microtiter U-plate, for each well of the replicates, 49 µL of broth medium were added. Then, in each well of the plate, one microliter of each compound at variable dilution in DMSO was added. For each test, three independent experiments with three replicates each were performed. Tested reference bacterial strains (E. coli ATCC25922; S. Typhimurium ATCC14028; K. pneumoniae ATCC13883) were brought to the logarithmic phase of growth in MHB medium by incubation at 37 °C for 24 h. After incubation, bacterial suspensions were centrifuged (2000 rpm, 4 °C for 20 min), and then the pellets were resuspended in 100 mM phosphate buffer, pH 7.0, to reach a final bacterial concentration of 10^8 CFU/mL, adjusted by spectrophotometry (OD620nm ranged between 0.08–0.13). The obtained suspensions were further diluted 1:100 in broth medium to reach a bacterial concentration of 10^6 CFU/mL. Fifty µL of the bacterial suspension containing 10^6 CFU/mL were inoculated into each well within 30 min, to obtain a final concentration of 5 × 10^5 CFU/mL in a total volume of 100 µL. The final dilution range tested was 256–0.5 µg/mL. Growth and sterility controls were performed for each strain and for each tested compound. Plates were then incubated for 24 h at 37 °C in a static aerobic atmosphere. After incubation, plates were read by unaided eye with a microtiter reading mirror and then the OD of each well of the plates was measured spectrophotometrically at 620 nm. MIC values were calculated as the arithmetic mean ± standard deviation (SD) of the unaided eye reading and the inhibition of growth for each tested dilution was calculated from the OD values (mean ± SD). A quality control microorganism (E. coli ATCC 25922) was tested periodically to validate the accuracy of the procedure.
# [2] = tested on: E. coli ATCC 25922; experiment: MIC by broth microdilution, E. coli; type: cell-based, Escherichia coli; settings: MHB; for MIC: Escherichia coli, ATCC25922, read-out: MIC (μg/mL) E.coli ATCC 25922
# Protocol: as §1
# [3] = tested on: S. Typhimurium DW378; experiment: Target engagement: MIC of 12h and colistin in cysK/cysM-inactive mutant strain; type: cell-based, Salmonella enterica serovar Typhimurium; settings: colistin alone
# Protocol: In this regard, compound 12h has been selected because of its favorable overall properties. It has been tested at a concentration of 32 μg/mL, in order to ensure complete inactivation of both the OASS isoforms. […] The MIC assays of 12h and colistin alone on the DW378 strain have been performed and they have been compared with those obtained on the WT strain. […] But, on the other hand, the MIC value of colistin was […] lower on the mutant strain than that on the WT, a result that overlapped those achieved with the association of colistin and 12h in WT cells.
# MIC values were evaluated following CLSI guidelines with some modifications, as referred to in previous work. Twofold dilutions 25.6–0.05 mg/mL of the tested compounds were performed in DMSO in separate 96-well microtiter U-plates (Greiner, Milan, Italy). In a different 96-well microtiter U-plate, for each well of the replicates, 49 µL of broth medium were added. Then, in each well of the plate, one microliter of each compound at variable dilution in DMSO was added. For each test, three independent experiments with three replicates each were performed.
# Antimicrobial activity of associations between the different compounds and colistin (Sigma-Aldrich, St. Louis, MO, USA, lot n. 049M-4836 V) was tested with checkerboard assay with minor modifications, as mentioned in the previous work. For each assay, three experiments with three replicates each were assessed. For each compound tested concentration, 96-wells microtiter U-plates were prepared with twofold serial dilutions of colistin in MHB starting from the MIC value (µg/mL) for ten consecutive dilutions in 50 µL of broth. In each well of the same replicate, 1 µL of each compound in DMSO was added at a fixed concentration, 100 times higher than the final desired concentration (3.2; 1.6; 0.8 mg/mL). Subsequently, 49 µL of the bacterial suspension at a concentration of 10^6 CFU/mL, adjusted spectrophotometrically as reported above, was added to each well, reaching the final bacterial concentration of 5 × 10^5 CFU/mL. Growth and sterility controls were performed for each experiment and for each replicate. Finally, the plates were incubated at 37 °C in aerobic atmosphere for 24 h. After incubation, plates were read by unaided eye with a microtiter reading mirror and then the OD of each well of the plates was measured spectrophotometrically at 620 nm. MIC values were calculated as the arithmetic mean ± SD of the unaided eye reading and the inhibition of growth for each tested dilution was calculated from the OD values (mean ± SD).
# * This strain is defective for the expression of cysK and cysM genes, encoding for isozymes OASS-A and B. The genotypes of this strain are trpC109, cysK1772, and cysM1770. […]
# [4] = tested on: S. Typhimurium ATCC14028; experiment: MIC by broth microdilution, S. Typhimurium; type: cell-based, Salmonella enterica serovar Typhimurium; settings: MHB; for MIC: Salmonella enterica, read-out: MIC (μg/mL) S. Typhimurium ATCC14028
# Protocol: as §1
# [5] = tested on: MDBK cells; experiment: Cytotoxicity assay (MTT) on MDBK cells; type: cell-based, bovine; settings: 32, 16, 8 µg/mL; MTT test
# Protocol: The cytotoxicity assay was performed using the 3-(4,5-dimethylthiazol-2-yl)-2,5-diphenyltetrazolium bromide (MTT) test, following the procedure used by Donofrio et al.. MDBK cells were cultured on microtiter tissue culture plates in DMEM medium for 24 h at 37 °C in the presence of 5% CO2. After incubation, when the cell monolayer was at confluence, an aliquot of 1 µL of UPAR415 in DMSO at different concentrations was added in each well, containing a volume of 100 µL of DMEM medium and MDBK cells, and then the plates were reincubated at the same conditions. After incubation, 10 µL of MTT at 200 mg/mL (3-(4,5-dimethylthiazol-2-yl)-2,5-diphenyltetrazolium bromide) was added to each well and incubated at 37 °C for 6 h. At the end of the incubation, 100 µL of the solubilization solution (10% SDS in 0.01 M HCl) was added to each well and then incubated overnight. The MTT compound, a yellow tetrazolium salt, is reduced by mitochondrial enzymes (succinate dehydrogenase) of metabolically active eukaryotic cells to insoluble formazan crystals. In the presence of metabolically active cells, after the addition of a detergent solution (10% SDS in […]) that allows the formazan to be released from the cells, a violet color is seen in the medium. Instead, in the presence of non-viable cells, MTT is not reduced to formazan and therefore the solution will remain yellow.
# After incubation, plates were read with a spectrophotometer at 620 nm. Positive controls (PC)—without any compounds—and PCs with 1% DMSO were performed for each plate and three replicates for two independent experiments were performed for each assay.
# [6] = molecular target: T1, StOASS-B (Salmonella typhimurium, UniProt P29848); experiment: Fluorescence binding assay on purified recombinant StOASS-B; settings: 20 °C, 100 mM HEPES, 5% DMSO, pH 7.0; racemic mixture; esters tested up to 100 μM
# T1 construct: His-tag (with TEV site) (cleaved yes); made in house; host or cells: E. coli Rosetta (DE3)
# T1 sequence (P29848 1-303): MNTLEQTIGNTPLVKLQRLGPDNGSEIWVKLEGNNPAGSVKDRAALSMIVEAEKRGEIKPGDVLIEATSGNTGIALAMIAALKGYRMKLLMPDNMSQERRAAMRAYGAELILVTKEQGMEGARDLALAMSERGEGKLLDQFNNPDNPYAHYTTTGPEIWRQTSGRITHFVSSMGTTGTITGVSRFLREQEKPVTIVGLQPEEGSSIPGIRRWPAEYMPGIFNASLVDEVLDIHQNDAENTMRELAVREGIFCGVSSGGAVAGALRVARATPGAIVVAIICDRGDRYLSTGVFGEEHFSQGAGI
# Protocol: (§2) The affinity of the compounds for StOASS-A and StOASS-B was determined on the purified recombinant proteins by an in vitro fluorescence binding assay. Measurements were carried out at 20 °C in a 3 mm pathlength quartz microcuvette in 100 mM HEPES, 5% DMSO (Applichem, Darmstadt, Germany), pH 7.0, using a Fluoromax-4 (Horiba Jobin-Yvon, Kyoto, Japan) spectrofluorometer. Emission spectra of solutions containing 0.2–1.0 μM StOASS, upon excitation of the pyridoxal 5′-phosphate cofactor at 412 nm, in the presence of increasing concentrations of compounds were collected; fluorescence intensities at 500 nm were plotted to compound concentration and data were fitted to a binding isotherm: I=I0+ΔI·compound/KD+compound where I is the fluorescence emission intensity at 500 nm in the presence of a given concentration of compound, I0 is the initial fluorescence emission in the absence of ligands, ΔI is the amplitude of the fluorescence emission change and KD is the dissociation constant. When the KD was lower than the protein concentration, data were fitted to the quadratic equation: I=I0+ΔI·OASS+compound+KD−OASS+compound+KD^2−4·OASS·compound/2
# (§3) Data were collected in duplicate.
# (§4) Esters were tested up to a concentration of 100 μM and no binding was observed.
# [7] = molecular target: T2, StOASS-A (Salmonella typhimurium, UniProt P0A1E3); experiment: Fluorescence binding assay on purified recombinant StOASS-A; parameters: species or system S. Typhimurium; settings: 20 °C, 100 mM HEPES, 5% DMSO, pH 7.0; racemic mixture; esters tested up to 100 μM
# T2 construct: His-tag (with TEV site) (cleaved yes); made in house; host or cells: E. coli Rosetta (DE3)
# Protocol: as §2, §3, §4
# T2 sequence (P0A1E3 whole entry): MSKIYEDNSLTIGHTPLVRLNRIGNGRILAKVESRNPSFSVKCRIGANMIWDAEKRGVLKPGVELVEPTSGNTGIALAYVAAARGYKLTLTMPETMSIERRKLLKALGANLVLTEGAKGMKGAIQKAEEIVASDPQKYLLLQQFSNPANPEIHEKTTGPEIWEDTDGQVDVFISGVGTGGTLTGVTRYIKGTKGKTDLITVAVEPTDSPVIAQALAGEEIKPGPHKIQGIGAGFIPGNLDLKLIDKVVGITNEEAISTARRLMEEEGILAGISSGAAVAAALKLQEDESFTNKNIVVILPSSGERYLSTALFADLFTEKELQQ
compound,measurement,setting,value
Colistin [reference compound],MIC Colistin K. pneumoniae,[1]; colistin alone,4.00 ± 1.73 µg/mL
same,MIC Colistin E. coli,[2]; colistin alone,0.39 ± 0.25 µg/mL
same,MIC Colistin,[3]; DW378 mutant strain,0.141 ± 0.09 µg/mL
same,MIC of colistin on mutant strain DW378 relative to WT (fold lower),[3]; DW378 versus wild type,5 fold
same,MIC Colistin S. Typhimurium,"[4]; colistin alone, ATCC14028 (wild type)",0.53 ± 0.19 µg/mL
"CCOC(=O)[C@]1(Cc2ccc(C)cc2)C[C@H]1c1cccc(N2CCNCC2)c1 (relative stereo) [Compound 20i, trans-ethyl 1-(4-methylbenzyl)-2-(3-(piperazin-1-yl)phenyl)cyclopropanecarboxylate]",MIC,"[1]; compound alone, 24 h at 37 °C",32 µg/mL
same,MIC (μg/mL) K. pneumoniae ATCC13883,"[1]; compound alone, 24 h at 37 °C",measurable antimicrobial activity
same,Toxicity on viability of MDBK cells,[5],high toxicity profiles
same,MIC,"[2]; compound alone, 24 h at 37 °C",40 µg/mL
same,MIC (μg/mL) E.coli ATCC 25922,"[2]; compound alone, 24 h at 37 °C",measurable antimicrobial activity
same,KD (μM) OASS-B,[6],No binding
same,MIC,"[4]; compound alone, 24 h at 37 °C",36 µg/mL
same,MIC (μg/mL) S. Typhimurium ATCC14028,"[4]; compound alone, 24 h at 37 °C",measurable antimicrobial activity
same,KD (μM) OASS-A,[7],No binding
"CCOC(=O)[C@]1(Cc2ccc(C)cc2)C[C@H]1c1cccc(N2CCOCC2)c1 (relative stereo) [Compound 12g, trans-ethyl 1-(4-methylbenzyl)-2-(3-morpholinophenyl)cyclopropanecarboxylate]",MIC,"[1]; compound alone, 24 h at 37 °C",> 512 µg/mL
same,Toxicity on viability of MDBK cells,[5],proliferative effects
same,MIC,"[2]; compound alone, 24 h at 37 °C",> 512 µg/mL
same,KD (μM) OASS-B,[6],No binding
same,MIC,"[4]; compound alone, 24 h at 37 °C",> 512 µg/mL
same,KD (μM) OASS-A,[7],No binding

# — PMC9227781, “Inhibitors of O-Acetylserine Sulfhydrylase with a Cyclopropane-Carboxylic Acid Scaffold Are Effective Colistin Adjuvants in Gram Negative Bacteria” (Pharmaceuticals, 2022)
